Experimental data as given in patent publication US4123544A, “Acetylsalicylic acid derivatives” (priority 1977, dated 1978).
Converted amounts (≈) assume the structure as drawn. “And” between values parts separate entries of the source, which are not always exact repeats. Equal entries are not always repeated. Where two headings read alike, the source gives them in different places.

Legend:
Solubility in water = type: physicochemical
[1] = system: carrageenin-induced plantar oedema; experiment: Anti-inflammatory activity, carrageenin-induced plantar oedema test on rats (intraperitoneal); type: in vivo; conditions: for percentage variation in volume, (V2 - V1)/V1 × 100, individual rats: 200 mg/kg (expressed as weight of compound); for percentage variation in volume, (V2 - V1)/V1 × 100, individual rats / percentage variation in volume, mean (X): 3 hours; for percentage variation in volume, mean (X): controls 88.22% ± 10.5; for Percentage variation: mean oedema versus controls
Protocol: The anti-inflammatory activity of 1-o-acetoxybenzoyl-4-hydroxy-L-proline was studied by means of the carrageenin-induced plantar oedema test on rats.
[…] of each rat in three groups of 8 to 9 rats was injected with carrageenin at time Ho. The first group was a control group and the second and third groups were test groups. The volume (V1) of the paw was then measured, and the compounds to be tested were administered intraperitoneally. The volume (V2) of the same paw was measured again three hours later.

[2] = system: phenylbenzoquinone cramping; experiment: Analgesic activity, phenylbenzoquinone cramping test; type: in vivo; conditions: oral; for Percentage change in number of cramps versus control / Number of cramps / Percentage inhibition relative to the control animals: 2 hours before test; for Number of cramps: control 449
Protocol: The analgesic activity of 1-o-acetoxybenzoyl-4-hydroxy-L-proline was studied by means of the phenylbenzoquinone cramping test, in comparison with the same injectable aspirin as that used in Example 2, the two compouns being administered orally 2 hours before the test on groups of 10 animals; a control group of animals to which neither compound was administered was also used.

[3] = system: hyperthermia caused by the injection of brewer's yeast; experiment: Antipyretic activity, hyperthermia caused by injection of brewer's yeast; type: in vivo, rats; conditions: intraperitoneal; for central temperature: 200 mg to 400 mg/kg, 37.28 ± 0.052 at Ho
Protocol: The antipyretic activity of 1-o-acetoxybenzoyl-4-hydroxyl-L-proline was assessed by the hyperthermia caused by the injection of brewer's yeast 17 hours before the start of the experiment (groups of 8 rats + 1 comparison group without yeast). The first temperature measurement was made at time Ho and the compounds to be tested were then administered intraperitoneally. The central temperature was then checked 1 hour 30 minutes, 3 hours and 4 hours 30 minutes after Ho.

mice = experiment: acute toxicity on intravenous administration to mice; type: in vivo
Excerpt: (§1) acute toxicity on intravenous administration to mice
(§2) The acute toxicity of 1-o-acetoxybenzoyl-4-hydroxy-L-proline was investigated by comparison with an injectable aspirin, namely lysine acetylsalicylate. The acetylsalicylic acid content of the two compounds was substantially the same (about 50%).
(§3) (Intravenous administration to mice)
(§4) *x/5: number of dead animals amongst 5 animals tested.

[4] = acute toxicity, intraperitoneal administration to mice; conditions: mouse, in vivo, ip
Excerpt: The LD50 of the compound according to the invention, when administered intraperitoneally to mice, was about 10g/kg, whilst it was about 3g/kg for lysine acetylsalicylate.

[5] = system: carrageenin-induced oedema; experiment: Anti-inflammatory activity, carrageenin-induced oedema test on rats (intramuscular); type: in vivo; conditions: for % inhibition / % Variation in the volume of the oedema: 3 hours; for % Variation in the volume of the oedema: comparisons 107.39 ± 5.19
Protocol: The anti-inflammatory activity of 1-o-acetoxybenzoyl-L-proline was studied by means of the carrageenin-induced oedema test on rats. In this test, the antiinflammatory activity of the compound according to the invention was compared with that of an injectable aspirin, namely lysine acetylsalicylate.
the compounds were injected intramuscularly, 30 minutes before the carrageenin. The volume of the oedema was measured three hours afterwards.

rats = experiment: Analgesic activity, Randall-Selitto test on rats; type: in vivo
Excerpt: The analgesic activity of 1-o-acetoxybenzoyl-L-proline was studied on rats by means of the Randall-Selitto test (Arch. int. Pharmacodyn., 1957, 111, 409, 419).

gastric ulcers = conditions: administered orally; known disadvantage; cited from earlier work
[6] = acute toxicity, oral administration to mice; conditions: mouse, in vivo, orally
[7] = acute toxicity on intravenous administration to mice; type: in vivo; conditions: mouse, in vivo; intravenous, mice
Excerpt: as §1, §2, §3, §4

[8] = 50 mg/kg (expressed as weight of compound)
[9] = 100 mg/kg (expressed as weight of compound)
[10] = 50 mg/kg (expressed as acetylsalicylic acid)
[11] = 100 mg/kg (expressed as acetylsalicylic acid)

SMILES	percentage variation in volume, mean (X) ([1]; 200 mg/kg)	Percentage variation ([1]; 200 mg/kg) [%]	central temperature ([3]; 1 hr 30 mins after Ho) [°C]	central temperature ([3]; 3 hrs after Ho) [°C]	central temperature ([3]; 4 hrs 30 mins after Ho) [°C]	number of dead animals amongst 5 animals tested (mice; intravenous, mice, 1,500 mg/kg)	number of dead animals amongst 5 animals tested (mice; intravenous, mice, 3,000 mg/kg)	% inhibition ([5]; 50 mg/kg) [%]	% Variation in the volume of the oedema ([5]; 50 mg/kg) [%]	% inhibition ([5]; 100 mg/kg) [%]	% Variation in the volume of the oedema ([5]; 100 mg/kg) [%]	% inhibition ([5]; 200 mg/kg) [%]	% Variation in the volume of the oedema ([5]; 200 mg/kg) [%]	Inhibition % (rats; 50 mg/kg, 1 hour) [%]	Inhibition % (rats; 50 mg/kg, 2 hours) [%]	Inhibition % (rats; 50 mg/kg, 4 hours) [%]	Inhibition % (rats; 100 mg/kg, 1 hour) [%]	Inhibition % (rats; 100 mg/kg, 2 hours) [%]	Inhibition % (rats; 100 mg/kg, 4 hours) [%]	Inhibition % (rats; 200 mg/kg, 1 hour) [%]	other results
CC(=O)Oc1ccccc1C(=O)N1CC(O)C[C@H]1C(=O)O (stereo partly drawn) [1-o-acetoxybenzoyl-4-hydroxy-L-proline]	66.61 ± 9.7%	-24	36.12	36.40	36.82	0/5	0/5	–	–	–	–	–	–	–	–	–	–	–	–	–	solubility (Solubility in water; pH = 3): ~50 mg/mL (≈ 170 mM); percentage variation in volume, (V2 - V1)/V1 × 100, individual rats ([1]; listed as Compound according to the invention): 63.6% and 64% and 82.5% and 82.3% and 63.5% and 61.6% and 67.4% and 53.7% and 60.9%; anti-inflammatory activity (in words) ([1]; 200 mg/kg, versus injectable aspirin): very good anti-inflammatory activity, markedly superior to that of the injectable aspirin; Percentage change in number of cramps versus control [2, 8]: -12%; Number of cramps [2, 8]: 396; Percentage change in number of cramps versus control [2, 9]: -57%; Number of cramps [2, 9]: 194; analgesic activity relative to the injectable aspirin ([2]; phenylbenzoquinone test): practically twice that of the injectable aspirin; antipyretic activity (in words) ([3]; versus injectable aspirin): greater than that of the injectable aspirin; toxicity (in words) (mice; intravenous, mice): substantially non-toxic; number of dead animals amongst 5 animals tested (mice; intravenous, mice, 700 mg/kg): 0/5; number of dead animals amongst 5 animals tested (mice; intravenous, mice, 4,000 mg/kg): 0/5; immediate symptoms (mice; mouse, in vivo, iv): practically no symptoms; LD50 [4]: ~10000 mg/kg
CC(=O)Oc1ccccc1C(=O)N1CCC[C@H]1C(=O)O [1-o-acetoxybenzoyl-L-proline]	–	–	–	–	–	–	–	2.48	104.73 ± 7.23	23.97	81.65 ± 5.97	29.50	75.71 ± 4.8	59.49	67.57	44.00	74.68	89.19	53.33	98.73	solubility (Solubility in water): 50 mg/mL (≈ 180 mM); antiinflammatory activity (in words) ([5]; dose of 100 mg): comparable to that of lysine acetylsalicylate used at medium doses; Inhibition % (rats; 200 mg/kg, 2 hours): 130.98%; Inhibition % (rats; 200 mg/kg, 4 hours): 104.01%; analgesic activity (in words) (rats; dose of 100 mg): comparable to that of lysine acetylsalicylate used at medium doses
CC(=O)Oc1ccccc1C(=O)O [acetylsalicylic acid]	–	–	–	–	–	–	–	–	–	–	–	–	–	–	–	–	–	–	–	–	ulcerogenic activity (gastric ulcers): ulcerogenic
CC(=O)Oc1ccccc1C(=O)O [Lysine acetylsalicylate, lysine acetylsalicylate, reference compound]	74.29% ± 9.36	-16	36.64	36.92	36.90	0/5	3/5	16.74	89.41 ± 9.39	27.56	77.79 ± 5.39	41.76	62.54 ± 6.83	72.98	60.26	65.79	85.14	97.44	73.68	105.40	percentage variation in volume, (V2 - V1)/V1 × 100, individual rats ([1]; listed as Injectable aspirin): 74.4% and 83.3% and 70.7% and 68.3% and 87.5% and 61% and 85% and 64%; LD50 [6]: 3000 mg/kg; Percentage inhibition relative to the control animals [2, 10]: -14%; Number of cramps [2, 10]: 386; Percentage inhibition relative to the control animals [2, 11]: -56%; Number of cramps [2, 11]: 196; Inhibition % (rats; 200 mg/kg, 2 hours): 124.36%; Inhibition % (rats; 200 mg/kg, 4 hours): 111.84%; immediate symptoms (mice; intravenous, mice): pronounced, with depression, ataxia and convulsions occurring; number of dead animals amongst 5 animals tested (mice; intravenous, mice, 2,000 mg/kg): 5/5; number of dead animals amongst 5 animals tested (mice; intravenous, mice, 3,500 mg/kg): 5/5; LD50 [7]: ~2000 mg/kg; LD50 ([4]; intraperitoneally, mice, read-out: LD50): ~3000 mg/kg
